The results in this text go back to patent publication US20250114345A1, “COMPOUNDS AND COMPOSITIONS AS CBP/P300 DEGRADERS AND USES THEREOF” (Oncopia Therapeutics, Inc. d/b/a/ SK Life Science Labs, priority 2023, published 2025).

The assay has as its target T1, p300 (Homo sapiens, UniProt Q09472).
T1 construct: host or cells: A549 P300 HiBit cells
Kind of assay: P300 degradation, HiBit technology in A549 P300 HiBit cells (2 h). The assay is classed as cell-based. The settings on record: 2 hrs post treatment; for Dmax: A549, A549 P300 HiBit cells; for DC50: A549 P300 HiBit cells. In short, it runs like this:
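Endogenously HiBiT-tagged A549 cells are plated, left overnight, then treated with a compound dilution series at 37 °C and 5% CO2. At the set time, lytic detection buffer is added and plates are shaken 10 min at room temperature before luminescence is measured to derive potency and Dmax.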
In general terms: HiBiT is a short tag that completes a luciferase, so light tracks the accessible tagged protein.

A value given as a limit tells only on which side of the number the result lay.

T1 sequence (Q09472 whole entry): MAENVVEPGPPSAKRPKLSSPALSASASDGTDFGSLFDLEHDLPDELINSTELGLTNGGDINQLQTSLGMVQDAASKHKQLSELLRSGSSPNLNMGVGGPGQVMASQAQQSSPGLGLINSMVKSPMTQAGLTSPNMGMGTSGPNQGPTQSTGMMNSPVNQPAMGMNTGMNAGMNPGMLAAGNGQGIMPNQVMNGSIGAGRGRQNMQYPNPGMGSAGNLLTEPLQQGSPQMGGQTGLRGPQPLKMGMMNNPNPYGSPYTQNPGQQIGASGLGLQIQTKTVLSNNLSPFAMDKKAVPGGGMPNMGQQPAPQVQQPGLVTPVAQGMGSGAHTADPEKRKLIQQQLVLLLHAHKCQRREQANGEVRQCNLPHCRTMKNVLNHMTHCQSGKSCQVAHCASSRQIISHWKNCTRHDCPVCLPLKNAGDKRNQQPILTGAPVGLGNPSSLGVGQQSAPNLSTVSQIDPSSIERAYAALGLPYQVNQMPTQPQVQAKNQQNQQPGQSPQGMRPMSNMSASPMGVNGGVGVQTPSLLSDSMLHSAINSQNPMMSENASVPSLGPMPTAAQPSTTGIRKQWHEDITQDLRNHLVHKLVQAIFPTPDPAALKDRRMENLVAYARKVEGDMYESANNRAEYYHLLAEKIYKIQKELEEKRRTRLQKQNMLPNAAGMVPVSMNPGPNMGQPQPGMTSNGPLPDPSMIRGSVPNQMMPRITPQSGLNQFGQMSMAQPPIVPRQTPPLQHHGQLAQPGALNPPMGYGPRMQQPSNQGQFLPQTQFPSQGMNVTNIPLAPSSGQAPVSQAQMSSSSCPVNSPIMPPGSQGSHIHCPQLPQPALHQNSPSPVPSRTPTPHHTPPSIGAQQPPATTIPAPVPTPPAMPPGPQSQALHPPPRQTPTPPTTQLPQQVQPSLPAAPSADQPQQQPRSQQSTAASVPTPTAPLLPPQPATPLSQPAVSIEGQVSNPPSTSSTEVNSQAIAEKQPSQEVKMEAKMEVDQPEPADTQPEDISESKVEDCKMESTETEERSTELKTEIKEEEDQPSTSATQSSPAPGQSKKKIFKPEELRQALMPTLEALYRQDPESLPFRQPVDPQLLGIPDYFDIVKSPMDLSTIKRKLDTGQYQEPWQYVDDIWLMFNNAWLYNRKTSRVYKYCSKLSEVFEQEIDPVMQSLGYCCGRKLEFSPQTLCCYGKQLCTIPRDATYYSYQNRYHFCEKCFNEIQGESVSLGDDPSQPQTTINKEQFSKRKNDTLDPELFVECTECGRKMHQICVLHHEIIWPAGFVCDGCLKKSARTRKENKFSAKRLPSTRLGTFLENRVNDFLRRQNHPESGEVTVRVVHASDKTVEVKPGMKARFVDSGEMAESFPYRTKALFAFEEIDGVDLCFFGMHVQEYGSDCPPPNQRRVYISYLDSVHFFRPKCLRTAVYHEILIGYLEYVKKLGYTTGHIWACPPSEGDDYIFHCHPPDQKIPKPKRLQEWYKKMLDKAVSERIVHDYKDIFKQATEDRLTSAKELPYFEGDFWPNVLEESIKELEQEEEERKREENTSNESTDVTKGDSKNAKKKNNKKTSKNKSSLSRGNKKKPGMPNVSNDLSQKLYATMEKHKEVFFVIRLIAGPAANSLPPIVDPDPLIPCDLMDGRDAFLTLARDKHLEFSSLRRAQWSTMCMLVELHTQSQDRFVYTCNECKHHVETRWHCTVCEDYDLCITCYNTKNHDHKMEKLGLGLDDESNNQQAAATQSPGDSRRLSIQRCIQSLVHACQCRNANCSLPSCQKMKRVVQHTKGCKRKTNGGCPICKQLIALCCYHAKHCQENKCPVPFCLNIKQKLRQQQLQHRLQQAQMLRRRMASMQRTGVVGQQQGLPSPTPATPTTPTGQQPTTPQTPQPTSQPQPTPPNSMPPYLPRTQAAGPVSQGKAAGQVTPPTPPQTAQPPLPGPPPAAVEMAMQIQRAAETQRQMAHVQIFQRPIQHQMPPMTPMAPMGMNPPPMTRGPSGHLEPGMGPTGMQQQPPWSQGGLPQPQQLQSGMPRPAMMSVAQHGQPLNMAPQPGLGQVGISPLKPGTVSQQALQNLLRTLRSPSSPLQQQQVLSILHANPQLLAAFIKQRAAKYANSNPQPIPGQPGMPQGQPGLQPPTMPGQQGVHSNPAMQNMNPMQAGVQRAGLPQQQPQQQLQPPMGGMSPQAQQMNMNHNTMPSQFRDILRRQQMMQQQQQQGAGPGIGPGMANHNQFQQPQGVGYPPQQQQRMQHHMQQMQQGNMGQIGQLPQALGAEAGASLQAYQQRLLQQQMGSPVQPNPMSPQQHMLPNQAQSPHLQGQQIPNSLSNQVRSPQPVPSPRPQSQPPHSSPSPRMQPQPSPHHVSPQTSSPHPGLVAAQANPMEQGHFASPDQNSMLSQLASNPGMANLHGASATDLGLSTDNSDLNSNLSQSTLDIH

As usually defined, the Dmax is the largest share of the target that was removed. The low end stands for shallow degradation, the high end for deep degradation. One may read the DC50 as the concentration giving 50% degradation. Molecule `Cc1cc(=O)n(C)c2cc(C3CCOCC3)cc(N3CCCc4nc(-c5ccc(C(=O)NCC#Cc6ccc7occ(C8CCC(=O)NC8=O)c7c6)nc5)ncc43)c12` (centres unmarked) [Example B80, 5-(5-(1,4-dimethyl-2-oxo-7-(tetrahydro-2H-pyran-4-yl)-1,2-dihydroquinolin-5-yl)-5,6,7,8-tetrahydropyrido[3,2-d]pyrimidin-2-yl)-N-(3-(3-(2,6-dioxopiperidin-3-yl)benzofuran-5-yl)prop-2-yn-1-yl)picolinamide] returned a Dmax of less than 20% and a DC50 greater than 1000 nM.

As for `CN(c1cnc(-c2ccc(C(=O)NCC#Cc3cc4c(C5CCC(=O)NC5=O)cccc4o3)nc2)nc1)c1cc(C2CCOCC2)c2c(c1)n(C)c(=O)n2C` (centres unmarked) [Example A229, 5-(5-((1,3-dimethyl-2-oxo-7-(tetrahydro-2H-pyran-4-yl)-2,3-dihydro-1H-benzo[d]imidazol-5-yl)(methyl)amino)pyrimidin-2-yl)-N-(3-(4-(2,6-dioxo-piperidin-3-yl)benzofuran-2-yl)prop-2-yn-1-yl)picolinamide], the Dmax was greater than 80% and the DC50 was less than 1 nM.

`Cc1cc2c(-c3cccc4cc(-c5ccc(C(=O)NCC#Cc6ccc7occ(C8CCC(=O)NC8=O)c7c6)nc5)ncc34)nc(N3CC(C)(O)C3)cc2n(C)c1=O` (centres unmarked) [Example B101, N-(3-(3-(2,6-dioxopiperidin-3-yl)benzofuran-5-yl)prop-2-yn-1-yl)-5-(8-(7-(3-hydroxy-3-methylazetidin-1-yl)-1,3-dimethyl-2-oxo-1,2-dihydro-1,6-naphthyridin-5-yl)isoquinolin-3-yl)picolinamide] gave a maximal degradation (Dmax) greater than 80% and a DC50 of 1 to 9.9 nM.

In turn, `CC(C)c1cc(-c2ncc(N(C)c3cc(C(C)C)c4c(c3)n(C)c(=O)n4C)cn2)cnc1C(=O)NCC#Cc1ccc2occ(C3CCC(=O)NC3=O)c2c1` (centres unmarked) [Example A71, N-(3-(3-(2,6-dioxopiperidin-3-yl)benzofuran-5-yl)prop-2-yn-1-yl)-3-isopropyl-5-(5-((7-isopropyl-1,3-dimethyl-2-oxo-2,3-dihydro-1H-benzo[d]imidazol-5-yl)(methyl)amino)pyrimidin-2-yl)picolinamide] had a Dmax greater than 80% and a DC50 of 1 to 9.9 nM.

For the molecule `Cc1cc2c(N3CCCc4nc(-c5ccc(C(=O)NCC#Cc6cc7c(C8CCC(=O)NC8=O)cccn7n6)nc5)ncc43)cc(C3CCOCC3)cc2n(C)c1=O` (centres unmarked) [Example B170, 5-(5-(1,3-dimethyl-2-oxo-7-(tetrahydro-2H-pyran-4-yl)-1,2-dihydroquinolin-5-yl)-5,6,7,8-tetrahydropyrido[3,2-d]pyrimidin-2-yl)-N-(3-(4-(2,6-dioxopiperidin-3-yl)pyrazolo[1,5-a]pyridin-2-yl)prop-2-yn-1-yl)picolinamide], the Dmax was 20 to 39% and the DC50 lay within 1 to 9.9 nM.

For the molecule `COC1CN(c2cc(N3CCOc4cc(-c5ccc(C(=O)NCC#Cc6ccc7occ(C8CCC(=O)NC8=O)c7c6)nc5)c(F)cc43)c3cc(C)c(=O)n(C)c3c2)C1` (centres unmarked) [Example B113, N-(3-(3-(2,6-dioxopiperidin-3-yl)benzofuran-5-yl)prop-2-yn-1-yl)-5-(6-fluoro-4-(7-(3-methoxyazetidin-1-yl)-1,3-dimethyl-2-oxo-1,2-dihydroquinolin-5-yl)-3,4-dihydro-2H-benzo[b][1,4]oxazin-7-yl)picolinamide], the Dmax is greater than 80% and the 50% degradation concentration (DC50) was 1 to 9.9 nM.

In turn, `CC(C)c1cc(-c2cccc3cc(-c4ccc(C(=O)NCC#Cc5cc6c(C7CCC(=O)NC7=O)coc6cn5)nc4)ncc23)cc2c1n(C)c(=O)n2C` (centres unmarked) [Example A228, N-(3-(3-(2,6-dioxo-piperidin-3-yl)furo[2,3-c]pyridin-5-yl)prop-2-yn-1-yl)-5-(8-(7-isopropyl-1,3-dimethyl-2-oxo-2,3-dihydro-1H-benzo [d]imidazol-5-yl)isoquinolin-3-yl)picolinamide] yielded a Dmax of 60 to 79% and a DC50 of 1 to 9.9 nM.

As for `CC(C)c1cc(N2CCCc3cc(-c4ccc(C(=O)NCc5ccc(-c6ccn(C7CCC(=O)NC7=O)n6)cc5)nc4)c(C(F)F)cc32)cc2c1n(C)c(=O)n2C` (centres unmarked) [Example A37, 5-(7-(Difluoromethyl)-1-(7-isopropyl-1,3-dimethyl-2-oxo-2,3-dihydro-1H-benzo[d]imidazol-5-yl)-1,2,3,4-tetrahydroquinolin-6-yl)-N-(4-(1-(2,6-dioxopiperidin-3-yl)-1H-pyrazol-3-yl)benzyl)picolinamide], the Dmax is less than 20% and the DC50 is greater than 1000 nM.

On to `[2H]C([2H])([2H])N(c1cnc(-c2cnc(C(=O)NCC#Cc3ccc4occ(C5CCC(=O)NC5=O)c4c3)c(C)c2)nc1)c1cc(C(C)C)c2c(c1)n(C)c(=O)n2C` (centres unmarked) [Example A65, N-(3-(3-(2,6-dioxopiperidin-3-yl)benzofuran-5-yl)prop-2-yn-1-yl)-5-(5-((7-isopropyl-1,3-dimethyl-2-oxo-2,3-dihydro-1H-benzo [d]imidazol-5-yl)(methyl-d3)amino)pyrimidin-2-yl)-3-methylpicolinamide], for which the Dmax was greater than 80% and the DC50 lay in the range of 1 to 9.9 nM.

For `COc1cc(-c2ncc3c(n2)CCCN3c2cccc3c2cc(C)c(=O)n3C)cnc1C(=O)NCC#Cc1ccc2occ(C3CCC(=O)NC3=O)c2c1` (centres unmarked) [Example B50, 5-(5-(1,3-dimethyl-2-oxo-1,2-dihydroquinolin-5-yl)-5,6,7,8-tetrahydropyrido[3,2-d]pyrimidin-2-yl)-N-(3-(3-(2,6-dioxopiperidin-3-yl)benzofuran-5-yl)prop-2-yn-1-yl)-3-methoxypicolinamide], the greatest degradation seen (Dmax) is greater than 80% and the DC50 is 1 to 9.9 nM.

In the case of `Cn1c(=O)n(C)c2cc(-c3cccc4cc(-c5cnc(C(=O)NCC#Cc6ccc7occ(C8CCC(=O)NC8=O)c7c6)c(Cl)c5)ncc34)ccc21` (centres unmarked) [Example A73, 3-chloro-5-(8-(1,3-dimethyl-2-oxo-2,3-dihydro-1H-benzo[d]imidazol-5-yl)isoquinolin-3-yl)-N-(3-(3-(2,6-dioxopiperidin-3-yl)benzofuran-5-yl)prop-2-yn-1-yl)picolinamide], the Dmax was greater than 80% and the DC50 lay in the range of 1 to 9.9 nM.

Take `Cc1cc(-c2cc3c(cc2F)N(c2cccc4c2cc(C)c(=O)n4C)CCO3)cnc1C(=O)NCC#Cc1ccc2occ(C3CCC(=O)NC3=O)c2c1` (centres unmarked) [Example B21, 5-(4-(1,3-dimethyl-2-oxo-1,2-dihydroquinolin-5-yl)-6-fluoro-3,4-dihydro-2H-benzo[b][1,4]oxazin-7-yl)-N-(3-(3-(2,6-dioxopiperidin-3-yl)benzofuran-5-yl)prop-2-yn-1-yl)-3-methylpicolinamide]: the Dmax was greater than 80% and the DC50 lay within 1 to 9.9 nM.

Turning to `CC(C)c1cc(-c2cccc3cc(-c4ccc(C(=O)NCC#Cc5cc(N(C)C)c6cnn(C7CCC(=O)NC7=O)c6c5)nc4)ncc23)cc2c1n(C)c(=O)n2C` (centres unmarked) [Example A9, N-(3-(4-(Dimethylamino)-1-(2,6-dioxopiperidin-3-yl)-1H-indazol-6-yl)prop-2-yn-1-yl)-5-(8-(7-isopropyl-1,3-dimethyl-2-oxo-2,3-dihydro-1H-benzo[d]imidazol-5-yl)isoquinolin-3-yl)picolinamide], the Dmax lay within 60 to 79% and the DC50 was in the range of 10 to 99 nM.
